Experimental data: patent US20130310256A1, “HERBICIDAL COMPOSITIONS COMPRISING 4-AMINO-3-CHLORO-5-FLUORO-6-(4-CHLORO-2-FLUORO-3-METHOXYPHENYL) PYRIDINE-2-CARBOXYLIC ACID OR A DERIVATIVE THEREOF AND VLCFA AND LIPID SYNTHESIS INHIBITING HERBICIDES” (DOW AGROSCIENCES LLC, priority 2008, published 2013)

Columns and labels:
GALAP = assay: Example III: post-emergence foliar-applied weed control in cereal crops, greenhouse; assay type: in vivo, Galium aparine L.; conditions: 21 DAA
Description: (§1) Seeds of the desired test plant species were planted in Sun Gro MetroMix® 306 planting mixture, which typically has a pH of 6.0 to 6.8 and an organic matter content of about 30 percent, in plastic pots with a surface area of 103.2 square centimeters (cm^2). When required to ensure good germination and healthy plants, a fungicide treatment and/or other chemical or physical treatment was applied. The plants were grown for 7-36 days in a greenhouse with an approximate 14 hour photoperiod which was maintained at about 18° C. during the day and 17° C. during the night. Nutrients and water were added on a regular basis and supplemental lighting was provided with overhead metal halide 1000-Watt lamps as necessary. The plants were employed for testing when they reached the second or third true leaf stage.
(§2) Treatments consisted of the benzyl ester of 4-amino-3-chloro-5-fluoro-6-(4-chloro-2-fluoro-3-methoxy-phenyl)pyridine-2-carboxylic acid (Compound A), formulated as an SC (suspension concentrate), and a second cereal herbicide alone and in combination.
(§3) Measured aliquots of the benzyl ester of 4-amino-3-chloro-5-fluoro-6-(4-chloro-2-fluoro-3-methoxy-phenyl)pyridine-2-carboxylic acid (Compound A) were placed in 25 milliliter (mL) glass vials and diluted in a volume of 1.25% (v/v) Agri-dex crop oil concentrated to obtain stock solutions. Compound requirements are based upon a 12 mL application volume at a rate of 187 liters per hectare (L/ha). Spray solutions of the second cereal herbicide and experimental compound mixtures were prepared by adding the stock solutions to the appropriate amount of dilution solution to form 12 mL spray solution with active ingredients in two- and three-way combinations. Formulated compounds were applied to the plant material with an overhead Mandel track sprayer equipped with an 8002E nozzle calibrated to deliver 187 L/ha over an application area of 0.503 square meters (m^2) at a spray height of 18 inches (46 cm) above average plant canopy. Control plants were sprayed in the same manner with the solvent blank.
(§4) The treated plants and control plants were placed in a greenhouse as described above and watered by sub-irrigation to prevent wash-off of the test compounds. After 20-22 days, the condition of the test plants as compared with that of the control plants was determined visually and scored on a scale of 0 to 100 percent where 0 corresponds to no injury and 100 corresponds to complete kill.
(§5) Colby's equation was used to determine the herbicidal effects expected from the mixtures (Colby, S. R. 1967. Calculation of the synergistic and antagonistic response of herbicide combinations. Weeds 15:20-22.).

KCHSC = assay: as above; assay type: in vivo, Kochia scoparia (L.) Schrad.; conditions: 21 DAA
Description: as §1, §2, §3, §4, §5

CHEAL = assay: as above; assay type: in vivo, Chenopodium album L.; conditions: 21 DAA
Description: as §1, §2, §3, §4, §5

CIRAR = assay: as above; assay type: in vivo, Cirsium arvense (L.) Scop.; conditions: 21 DAA
Description: as §1, §2, §3, §4, §5

PAPRH = assay: as above; assay type: in vivo, Papaver rhoeas L.; conditions: 21 DAA
Description: as §1, §2, §3, §4, §5

SINAR = assay: as above; assay type: in vivo, Sinapis arvensis L.; conditions: 21 DAA
Description: as §1, §2, §3, §4, §5

CYPES = assay: Example I: postemergence foliar-applied weed control, greenhouse; assay type: in vivo, Cyperus esculentus L. (yellow nutsedge)
STEME = assay: Example III: post-emergence foliar-applied weed control in cereal crops, greenhouse; assay type: in vivo, Stellaria media (L.) Vill.; conditions: 21 DAA
Description: as §1, §2, §3, §4, §5

COc1c(Cl)ccc(-c2nc(C(=O)OCc3ccccc3)c(Cl)c(N)c2F)c1F [Compound A Benzyl Ester, benzyl ester of 4-amino-3-chloro-5-fluoro-6-(4-chloro-2-fluoro-3-methoxy-phenyl)pyridine-2-carboxylic acid]
Visual Weed Control GALAP Obs (GALAP; 2.5 gai/ha): 55% | Visual Weed Control GALAP Obs (GALAP; 5 gai/ha): 66% | Visual Weed Control GALAP Obs (GALAP; 10 gai/ha): 77% | Visual Weed Control KCHSC Obs (KCHSC; 2.5 gai/ha): 20% | Visual Weed Control KCHSC Obs (KCHSC; 5 gai/ha): 41% | Visual Weed Control KCHSC Obs (KCHSC; 10 gai/ha): 62% | Visual Weed Control CHEAL Obs (CHEAL; 2.5 gai/ha): 50% | Visual Weed Control CHEAL Obs (CHEAL; 5 gai/ha): 58% | Visual Weed Control CIRAR Obs (CIRAR; 2.5 gai/ha): 48% | Visual Weed Control CIRAR Obs (CIRAR; 5 gai/ha): 39% | Visual Weed Control CIRAR Obs (CIRAR; 10 gai/ha): 60% | Visual Weed Control PAPRH Obs (PAPRH; 2.5 gai/ha): 48% | Visual Weed Control PAPRH Obs (PAPRH; 5 gai/ha): 28% | Visual Weed Control PAPRH Obs (PAPRH; 10 gai/ha): 35% | Visual Weed Control SINAR Obs (SINAR; 2.5 gai/ha): 70% | Visual Weed Control SINAR Obs (SINAR; 5 gai/ha): 73% | Visual Weed Control (%) - 20 DAA CYPES Obs (CYPES; 8 gae/ha): 0% | Visual Weed Control (%) - 21 DAA CYPES Obs (CYPES; 8 gae/ha): 85% | Visual Weed Control (%) - 20 DAA CYPES Obs (CYPES; 16 gae/ha): 75% | Visual Weed Control STEME Obs (STEME; 2.5 gai/ha): 25% | Visual Weed Control STEME Obs (STEME; 5 gai/ha): 25% | Visual Weed Control STEME Obs (STEME; 10 gai/ha): 27%
